According to US20170305992A1, “NOVEL PEPTIDES AND COMBINATION OF PEPTIDES FOR USE IN IMMUNOTHERAPY AGAINST VARIOUS TUMORS” (IMMATICS BIOTECHNOLOGIES GMBH, priority 2015, published 2017):

System: CD8+ T cells
Test: In vitro T-cell priming assay with aAPCs loaded with peptide/MHC and anti-CD28, pMHC multimer readout (in vitro immunogenicity)
Format: cell-based, human
Conditions: HLA-A*02 restricted peptides, Table 6B
Excerpt: In order to obtain information regarding the immunogenicity of the TUMAPs of the present invention, the inventors performed investigations using an in vitro T-cell priming assay based on repeated stimulations of CD8+ T cells with artificial antigen presenting cells (aAPCs) loaded with peptide/MHC complexes and anti-CD28 antibody.
In order to perform in vitro stimulations by artificial antigen presenting cells loaded with peptide-MHC complex (pMHC) and anti-CD28 antibody, the inventors first isolated CD8+ T cells from fresh HLA-A*02 leukapheresis products via positive selection using CD8 microbeads (Miltenyi Biotec, Bergisch-Gladbach, Germany) of healthy donors obtained from the University clinics Mannheim, Germany, after informed consent. PBMCs and isolated CD8+ lymphocytes were incubated in T-cell medium (TCM) until use consisting of RPMI-Glutamax (Invitrogen, Karlsruhe, Germany) supplemented with 10% heat inactivated human AB serum (PAN-Biotech, Aidenbach, Germany), 100 U/ml Penicillin/100 μg/ml Streptomycin (Cambrex, Cologne, Germany), 1 mM sodium pyruvate (CC Pro, Oberdorla, Germany), 20 μg/ml Gentamycin (Cambrex). 2.5 ng/ml IL-7 (PromoCell, Heidelberg, Germany) and 10 U/ml IL-2 (Novartis Pharma, Nürnberg, Germany) were also added to the TCM at this step. Generation of pMHC/anti-CD28 coated beads, T-cell stimulations and readout was performed in a highly defined in vitro system using four different pMHC molecules per stimulation condition and 8 different pMHC molecules per readout condition.
The purified co-stimulatory mouse IgG2a anti human CD28 Ab 9.3 (Jung et al., 1987) was chemically biotinylated using Sulfo-N-hydroxysuccinimidobiotin as recommended by the manufacturer (Perbio, Bonn, Germany). Beads used were 5.6 μm diameter streptavidin coated polystyrene particles (Bangs Laboratories, Ill., USA).
pMHC used for positive and negative control stimulations were A*0201/MLA-001 (peptide […] (SEQ ID NO. 289) from modified Melan-A/MART-1) and A*0201/DDX5-001 ([…] from DDX5, SEQ ID NO. 290), respectively.
800.000 beads/200 μl were coated in 96-well plates in the presence of 4×12.5 ng different biotin-pMHC, washed and 600 ng biotin anti-CD28 were added subsequently in a volume of 200 μl. Stimulations were initiated in 96-well plates by co-incubating […] CD8+ T cells with 2×10^5 washed coated beads in 200 μl TCM supplemented with 5 ng/ml IL-12 (PromoCell) for 3 days at 37° C. Half of the medium was then exchanged by fresh TCM supplemented with 80 U/ml IL-2 and incubating was continued for 4 days at 37° C. This stimulation cycle was performed for a total of three times. For the pMHC multimer readout using 8 different pMHC molecules per condition, a two-dimensional combinatorial coding approach was used as previously described (Andersen et al., 2012) with minor modifications encompassing coupling to 5 different fluorochromes. Finally, multimeric analyses were performed by staining the cells with Live/dead near IR dye (Invitrogen, Karlsruhe, Germany), CD8-FITC antibody clone SK1 (BD, Heidelberg, Germany) and fluorescent pMHC multimers. For analysis, a BD LSRII SORP cytometer equipped with appropriate lasers and filters was used. Peptide specific cells were calculated as percentage of total CD8+ cells. Evaluation of multimeric analysis was done using the FlowJo software (Tree Star, Oreg., USA). In vitro priming of specific multimer+CD8+ lymphocytes was detected by comparing to negative control stimulations.
Exemplary flow cytometry results after TUMAP-specific multimer staining for peptides of the invention are shown in FIG. 3 together with corresponding negative controls.

Substance | Wells positive [%]
97 (KLFEKSTGL; listed as Homo sapiens) [compound 97] | + (<20% = +)
89 (SLAETIFIV; listed as Homo sapiens) [compound 89] | + (<20% = +)
7 (ALLQALMEL; listed as Homo sapiens) [compound 7] | ++ (20% - 49% = ++)
35 (VIIKGLEEI; listed as Homo sapiens) [compound 35] | + (<20% = +)
260 (ALNESLVEC; listed as Homo sapiens) [compound 260] | + (<20% = +)
117 (TLLEGISRA; listed as Homo sapiens) [compound 117] | ++ (20% - 49% = ++)
257 (KLIDHQGLYL; listed as Homo sapiens) [compound 257] | + (<20% = +)
27 (GLLGKVTSV; listed as Homo sapiens) [compound 27] | + (<20% = +)
275 (AVPPPPSSV; listed as Homo sapiens) [compound 275] | ++ (20% - 49% = ++)
9 (SLITGQDLLSV; listed as Homo sapiens) [compound 9] | + (<20% = +)
4 (VLFGELPAL; listed as Homo sapiens) [compound 4] | + (<20% = +)
48 (KISDFGLATV; listed as Homo sapiens) [compound 48] | ++ (20% - 49% = ++)
248 (VLMQDSRLYL; listed as Homo sapiens) [compound 248] | ++ (20% - 49% = ++)
157 (ILQDGQFLV; listed as Homo sapiens) [compound 157] | + (<20% = +)
251 (LLWGNLPEI; listed as Homo sapiens) [compound 251] | ++ (20% - 49% = ++)
166 (LLGDSSFFL; listed as Homo sapiens) [compound 166] | ++ (20% - 49% = ++)
121 (ALYVQAPTV; listed as Homo sapiens) [compound 121] | + (<20% = +)
233 (SLFESLEYL; listed as Homo sapiens) [compound 233] | + (<20% = +)
77 (ALYGNVQQV; listed as Homo sapiens) [compound 77] | + (<20% = +)
254 (ALGDKFLLRV; listed as Homo sapiens) [compound 254] | + (<20% = +)

Substance | Wells positive [%]
242 (KLQEEIPVL; listed as Homo sapiens) [compound 242] | + (<20% = +)
264 (TLHDQVHLL; listed as Homo sapiens) [compound 264] | + (<20% = +)
50 (ILLSVLHQL; listed as Homo sapiens) [compound 50] | + (<20% = +)
263 (SIIEYLPTL; listed as Homo sapiens) [compound 263] | + (<20% = +)
29 (KMISAIPTL; listed as Homo sapiens) [compound 29] | + (<20% = +)
102 (GLYPVTLVGV; listed as Homo sapiens) [compound 102] | + (<20% = +)
66 (AMFPDTIPRV; listed as Homo sapiens) [compound 66] | + (<20% = +)
253 (KLLAVIHEL; listed as Homo sapiens) [compound 253] | ++ (20% - 49% = ++)
255 (FLMKNSDLYGA; listed as Homo sapiens) [compound 255] | + (<20% = +)
236 (KMSELQTYV; listed as Homo sapiens) [compound 236] | + (<20% = +)
101 (SLLEVNEASSV; listed as Homo sapiens) [compound 101] | + (<20% = +)
17 (GLLPSAESIKL; listed as Homo sapiens) [compound 17] | + (<20% = +)
11 (LLDPKTIFL; listed as Homo sapiens) [compound 11] | ++ (20% - 49% = ++)
246 (ALAGIVTNV; listed as Homo sapiens) [compound 246] | + (<20% = +)
234 (VLLNEILEQV; listed as Homo sapiens) [compound 234] | ++ (20% - 49% = ++)
261 (GLAALAVHL; listed as Homo sapiens) [compound 261] | ++ (20% - 49% = ++)
92 (RLFEEVLGV; listed as Homo sapiens) [compound 92] | ++ (20% - 49% = ++)
14 (YTFSGDVQL; listed as Homo sapiens) [compound 14] | + (<20% = +)
267 (YLLDMPLWYL; listed as Homo sapiens) [compound 267] | + (<20% = +)

Same assay, conditions: percentage of positive donors; HLA class I peptides, Table 6A

Substance | in vitro immunogenicity: donors
288 (SLYKGLLSV; listed as Homo sapiens) [compound 288] | ++++ (> = 70% = ++++)
287 (KIQEILTQV; listed as Homo sapiens) [compound 287] | +++ (50% - 69% = +++)

Same assay, conditions: percentage of positive wells; HLA class I peptides, Table 6A

Substance | in vitro immunogenicity: wells
288 (SLYKGLLSV; listed as Homo sapiens) [compound 288] | ++ (21% - 49% = ++)
287 (KIQEILTQV; listed as Homo sapiens) [compound 287] | + (<20% = +)
